This note sets out measurements from patent publication US20210275513A1, “SHELLAC MICROCAPSULE FORMULATIONS AND COMPOSITIONS FOR TOPICAL INTESTINAL DELIVERY OF VITAMIN B3” (CONARIS RESEARCH INSTITUTE AG, priority 2016, published 2021).

For one data set, the system named is intestinal microbiota. Nature of the data set: FIM study: microbiota analyses of stool samples (16S rRNA V3-V4 sequencing). The data set is classed as in vivo, human. Conditions: for abundance-based (Bray curtis) bacterial communities distance compared with a healthy normal reference group: baseline vs end of FIM study. An excerpt:
For microbiota analyses, stool samples were collected on the first Monday of the study (day 0, baseline sample) and subsequently once weekly on Thursdays (Table 7). Total genomic DNA was extracted from feces collected longitudinally from each subject using MoBio Powersoil DNA Isolation kit (Dianova GmbH, Hamburg, Germany) according to the manufacturer's instructions. Aliquots of extracted DNA were used to amplify the V3-V4 variable region of 16S rRNA using composite primers (319F and 806R), as described by Fadrosh et al. (Microbiome 2:6, 2014). Amplification was performed by Phusion® hot start flex 2X master mix (New England Biolabs, Frankfurt/M., Germany) in a GeneAmp PCR system 9700 (Life Technologies/Applied Biosystems, Darmstadt, Germany) using the following cycling conditions: an initial denaturation of 3 min at 98° C. followed by 30 cycles of denaturation at 98° C. for 10 s, annealing at 55° C. for 30 s and elongation at 72° C. for 30 s, and a final extension step at 72° C. for 10 min. PCR performance was assessed by agarose gel electrophoresis for quality (expected amplicon size) and quantity (band intensity). Quantitative normalization was performed using the SequalPrep kit (Life/Technologies/Invitrogen, Darmstadt, Germany) to pool equal amounts of amplicons per sample. Sequencing was performed by Illumina MiSeq (2×250 sequencing kit; Illumina, San Diego, Calif., USA), which allowed to generate paired end reads with entire overlapping in contigs generation. Sequencing reads were primarily processed for quality control using the software mothur (Schloss et al. 2009, Appl. Environ. Microbiol. 75:7537). Forward and reverse reads (fastq) were assembled to contig sequences and discarded if they had more than 475 bases, any ambiguous base or more than 8 homopolymers. Sequences were aligned against the mothur-curated silva alignment database and screened to have alignment in the amplified specified V3-V4 region only. Chimeric sequences were detected with the Uchime algorithm (Edgar et al. 2011, Bioinformatics 27:2194) and were also removed. […]

Another data set is described as follows: clinical. Conditions: both, human, in vivo, 900 mg, mean. As to the method:
The study consisted of four study days, each separated by one week of washout and regeneration. On the calibration day of the study, the subjects ingested 30 mg of unformulated NA (NA group) or 900 mg of unformulated NAM (NAM group) as in the FIM study (see Example 2). Different doses of microencapsulated NA or NAM packaged in gelatin capsules were administered on the other three study days: 30 mg NA or 900 mg NAM, 150 mg NA or 1500 mg NAM, and 300 mg NA or 3000 mg NAM.
After 12 h of fasting overnight (with water only), a fasted blood sample was collected. After ingestion of NA, NAM or the respective capsules, blood samples were collected every hour until 8 hours after ingestion as well as after 10 and 12 hours. During the collection of blood samples, subjects remained fasted (with water ad libitum) except for two light meals with minimal vitamin B3 content after the blood samplings of hour 3 and hour 8. One such “low niacin meal” consisted of three rice wafers, one apple and one carrot with a total of 2.3 mg of niacin equivalents.
Statistical analyses were carried out using SPSS version 22.0 (SPSS, Chicago, Ill., USA), and graphic data analysis was performed with GraphPad Prism version 5.0 (GraphPad Software, San Diego, Calif., USA). […]

Data set [1] is described as follows: Pilot pharmacokinetic (PK) study with NAM microcapsules: NA and NAM serum levels. Type of data set: in vivo, human. As to the method: The study was a self-experiment by medical investigators performed at the Department of Internal Medicine 1 of the University Hospital Schleswig-Holstein, Campus Kiel (Kiel, Germany).
In this study, subjects ingested either 900 mg of unformulated NAM (first week) or 900 mg of microencapsulated NAM packaged in gelatin capsules (second week). […] One such “low niacin meal” consisted of 150 g of apple, 150 g of red pepper and 100 g of cucumber. One niacin equivalent is defined as 1 mg of NA(M) or 60 mg of tryptophan.
Height and body weight were recorded before ingestion of the test item.

The nature of data set [2]: pH properties of shellac and NAM (dissolution pH, pH value). The data set is classed as physicochemical.
Data set [3] can be described thus: First-in-man (FIM) dose escalation study: NA and NAM serum levels by LC-MS/MS. Type of data set: in vivo, human.
Method: (§1) Ten healthy volunteers were included and allocated to 2 groups of 5 subjects each. One group received NA and the other group received NAM.
In this dose escalation study, subjects ingested the test items in the morning from Monday to Thursday of every week, followed by a three-day washout period from Friday to Sunday (Table 7). Before and until 30 min after administration (or until after the second blood sampling on Mondays), subjects fasted with water only. During week 1, the subjects took one daily dose of 30 mg unformulated NA or 900 mg unformulated NAM, respectively, to measure the maximum systemic exposure and peak serum levels according to nutritional tolerable upper intake levels or levels without anticipated side effects (Table 8). From week 2 until week 6, NA microcapsules or NAM microcapsules packaged in gelatin capsules (see Example 1) were administered with weekly dose increases (Tables 7 and 8).
Blood samples were collected on Mondays and Thursdays (Table 7). On Mondays, the first blood sample was collected before ingestion of the capsules (“0 h” samples), and a second blood sample was taken after 2 hours (“2 h”), while subjects were still fasting. […] In addition, NA and NAM levels were measured in all blood samples by LC-MS/MS in an external specialised laboratory to determine exposure (see Example 1).
A short description of data set [4]: FIM dose escalation study: safety parameters (routine laboratory, blood pressure, body weight). Conditions: week 1 hour 71: 30 mg free NA (NA group) or 900 mg free NAM (NAM group) daily; individual subjects.
Method: as §1
In this dose escalation study, subjects ingested the test items in the morning from Monday to Thursday of every week, followed by a three-day washout period from Friday to Sunday (Table 7). Before and until 30 min after administration (or until after the second blood sampling on Mondays), subjects fasted with water only. During week 1, the subjects took one daily dose of 30 mg unformulated NA or 900 mg unformulated NAM, respectively, to measure the maximum systemic exposure and peak serum levels according to nutritional tolerable upper intake levels or levels without anticipated side effects (Table 8).
In order to determine the intake of NA and NAM via the usual diet, a nutritional protocol was completed by the subjects from Mondays to Wednesdays. Blood samples were collected on Mondays and Thursdays (Table 7). On Mondays, the first blood sample was collected before ingestion of the capsules (“0 h” samples), and a second blood sample was taken after 2 hours (“2 h”), while subjects were still fasting. On Thursdays, blood samples were taken after administration of the capsules (“72 h”). Blood samples were subjected to routine laboratory analyses at the central laboratory of the University Hospital Schleswig-Holstein in Kiel (Germany). […] Blood pressure was measured on Mondays and Thursdays (Table 7).

Values joined by “and” are separate entries in the source; they are usually repeats but may differ in a detail not shown here. Equal entries are not always repeated.

As usually defined, the AUC is concentration integrated over time. The low end stands for low exposure, the high end for high exposure. Consider `NC(=O)c1cccnc1` [free NAM, nicotinamide], for which, in the data set on intestinal microbiota, the “abundance-based (Bray curtis) bacterial communities distance compared with a healthy normal reference group” value is listed as “trend”. The molecule also displayed an exposure (AUC) in the data set “clinical” of 78300 ng·h/mL. Further, the NAM serum levels is 19,900 μg/L and 20,100 μg/L in data set [1] (900 mg free or enc. NAM, hour 1, subjects 1-3); 15,900 μg/L and 17,200 μg/L in data set [1] (900 mg free or enc. NAM, hour 2, subjects 1-3); 9,740 μg/L and 13,100 μg/L in data set [1] (900 mg free or enc. NAM, hour 3, subjects 1-3); 7,390 μg/L and 10,300 μg/L in data set [1] (900 mg free or enc. NAM, hour 4, subjects 1-3). Also, the “time of peak of NAM serum levels after ingestion” value in data set [1] (900 mg, three healthy volunteers) is 1 h. The molecule further showed a concentration at 1 h in data set [1] (human, serum, oral, 900 mg, 900 mg free or enc. NAM, hour 1, subjects 1-3) of 11600 ng/mL. Further, in data set [1] (human, serum, oral, 900 mg, 900 mg free or enc. NAM, hour 2, subjects 1-3), the concentration at 2 h worked out at 10300 ng/mL. The concentration at 3 h in data set [1] (human, serum, oral, 900 mg, 900 mg free or enc. NAM, hour 3, subjects 1-3) was found to be 8380 ng/mL. Further, the concentration at 4 h in data set [1] (human, serum, oral, 900 mg, 900 mg free or enc. NAM, hour 4, subjects 1-3) is 5920 ng/mL. Besides, the pH value in data set [2] amounted to 6.61. The “accumulation (serum levels at 72 hours vs baseline levels)” value in data set [3] was “No NA or NAM accumulation was observed”. Further, the “Blood pressure, systolic” value in data set [4] is 120 mm Hg (4×) and 105 mm Hg. Further, in data set [4], the Glucose is 87 mg/dL and 80 mg/dL and 92 mg/dL and 84 mg/dL and 83 mg/dL.
Turning to `O=C(O)c1cccnc1` [free NA, nicotinic acid], in the data set with intestinal microbiota, the “abundance-based (Bray curtis) bacterial communities distance compared with a healthy normal reference group” value is given as “significant change”. The “Bacteroidetes (read counts)” value in the data set on intestinal microbiota (before, during and at the end of the FIM study) is “moderate, but overall significant increase”. Besides, in data set [3], the “accumulation (serum levels at 72 hours vs baseline levels)” value was “No NA or NAM accumulation was observed”. In data set [4], the “Blood pressure, systolic” value is 120 mm Hg and 130 mm Hg (2×) and 115 mm Hg and 105 mm Hg; the Glucose is 77 mg/dL and 92 mg/dL and 89 mg/dL and 85 mg/dL and 94 mg/dL.
